Reference: patent US20260308691A1, “NOVEL USE OF AN INHIBITOR OF THE POLY-ADP RIBOSE POLYMERASE (PARP) IN THE TREATMENT OF CANCER” (TESARO, Inc., priority 2023, published 2026)
Entries after “also recorded” stand apart in the source; their conditions may differ.

How the values were obtained:
Assay type in all cases: cell-based, human
[1] = test system: Patient-derived organoids (PDOs), HNSCC and NSCLC; experiment: Cytotoxicity in patient-derived organoids (Cell titre glow dose-response curve); conditions: for PDO response to niraparib compared with cisplatin: resistant and sensitive PDOs, 6 days
Procedure: (§1) A multi-modal assay was developed to test tumour cell response to niraparib and the effects of the treatment on immune cells. The assay is illustrated in FIG. 1. […] After 5 to 7 days (according to the proliferation rate of each PDO), one plate is treated with different doses of niraparib and DMSO for cytotoxicity evaluation. The remaining plates, PDOs are treated with niraparib (1.4 μM), cisplatin (4.7 μM), DMSO or saline solution (control) for 7 days. Following the treatment period, the media from one plate/condition (i.e. one DMSO and one Niraparib-treated plate) is collected for exosomes isolation and analysis of DNA length and the PDOs are processed to extract RNA for RNAseq and qRT-PCR (see the details in the qRT-PCR analysis section). For both niraparib and cisplatin treated samples (and the respective controls) PDOs are collected from the remaining plates and, after washing out BME, are plated into low adherence 96 well plates in a 1 to 6 ratio with Peripheral Blood Mononuclear Cells (PBMCs) pre-stimulated for a total of 4 days using anti-CD3 in combination anti-CD28 (as costimulatory signal) antibodies. The PDOs are co-cultured for 48 h after which all the cells are collected, the not infiltrating immune cells are washed off and the rest is either digested to single cells or fixed and embedded as whole tissue. For flow cytometry analysis the single cells are blocked, stained with antibody mix, fixed, and run on a flow cytometer. For imaging, the embedded organoids are labelled with different antibodies, cleared, and imaged.
PDOs are seeded as single cells at a certain density (according to their growth rate) in 15 μl BME/dome.
1 dome per well in 24-wells plate with 1 ml of complete media/each well. […] 150 μl of the solution is collected from each well and transferred to a 96 well plate for the reading performed with Clariostar Plus (BMG Labtech). […]

[2] = test system: CD45 positive cells infiltrating PDOs; experiment: Flow cytometry of CD45 positive immune cells infiltrating PDOs after coculture with activated PBMC; conditions: 48 h coculture
Procedure: as §1
After 48 h of co-culture, PDOs are collected. The non-infiltrating immune cells are separated with a cell strainer while the organoids and infiltrating immune cells reduced to single cell level. Live dead exclusion is performed incubating the cells with Zombie dye for 30 minutes at room temperature. Following a blocking step in MACS buffer and anti-human and mouse IgG, staining is performed in
MACS buffer with mouse anti human CD3, CD8, CD4, CD56, CD226, CD45, TIGIT, PD1, PDL1, EpCAM, PVRIG, TIM3, CD96, CD14 and CD11b antibodies for one hour at 4° C. The cells are then fixed and DNA staining performed. The cell-containing tubes are running on CytoFLEX (Beckman Coulter), and data analyzed with FlowJo software.

[3] = test system: exosomal DNA (exoDNA) from PDOs; experiment: Length of DNA isolated from exosomes (exoDNA) of treated PDOs; conditions: for exoDNA length, sensitive PDO HNX29: HNX29 (sensitive, representative), exosomes collected after 6 days, compared to control
Procedure: as §1, with “The remaining plates, PDOs are treated with niraparib (1.4 μM), cisplatin (4.7 μM), DMSO or saline solution (control) for 7 days.” left out
Exosomes are obtaining by a series of centrifugations and ultra-centrifugations at increasing speeds of the media collected from the PDO cultures. Each sample is split into two tubes for the ultracentrifugation (for subsequent protein and genomic analysis).
DNA is extracted from exosomes via silica-membrane based nucleic acid purification by QIAamp Blood DNA extraction Kit (QIAGEN) and quantified by Qubit dsDNA HS kit. The Genomic DNA ScreenTape assay on the Agilent 4200 Tapestation system is used to assess the length of DNA and the R package bioanalyzeR exploited to obtain the DNA size distribution and number of molecules at different sizes. Part of the exosome DNA is sequenced using Oxford Nanopore Promethion for a drug treatment and a control experiment. For both samples, reads are then aligned to the human genome (hg38) using minimap2, and the following analyses performed. For every gene for which there are any aligned reads, the following is calculated: • Fragments per kilobase million (FPKM) as a normalised metric of representation of gene in the exosome dataset • The maximum fraction of total gene length that is covered by a single nanopore read. • The median fraction of total gene length that is covered by all nanopore reads that aligned to that gene • Coding and non-coding variants (for all bases for which there was a minimum depth of 20 reads) • Hypomethylation of CpG island of coding variants

PD-L1 = PD-L1 expression in PDO tumour cells cocultured with activated PBMC (flow cytometry and multiplex imaging); conditions: resistant PDOs, co-cultured 48 h with activated PBMC
Procedure: A multi-modal assay was developed to test tumour cell response to niraparib and the effects of the treatment on immune cells. The assay is illustrated in FIG. 1. […] After 5 to 7 days (according to the proliferation rate of each PDO), one plate is treated with different doses of niraparib and DMSO for cytotoxicity evaluation. The remaining plates, PDOs are treated with niraparib (1.4 μM), cisplatin (4.7 μM), DMSO or saline solution (control) for 7 days. Following the treatment period, the media from one plate/condition (i.e. one DMSO and one Niraparib-treated plate) is collected for exosomes isolation and analysis of DNA length and the PDOs are processed to extract RNA for RNAseq and qRT-PCR (see the details in the qRT-PCR analysis section). […]
(§2) MACS buffer with mouse anti human CD3, CD8, CD4, CD56, CD226, CD45, TIGIT, PD1, PDL1, EpCAM, PVRIG, TIM3, CD96, CD14 and CD11b antibodies for one hour at 4° C. […] The cell-containing tubes are running on CytoFLEX (Beckman Coulter), and data analyzed with FlowJo software.
Multiplex fluorescence imaging assay is performed on a single 6-micron cryosection of fixed-frozen PDOs. […]

PD1 = experiment: Flow cytometry of PD1 expression on CD4 positive cells cocultured with PDOs; conditions: niraparib-treated PDOs, 48 h coculture
Procedure: as §1, with “The PDOs are co-cultured for 48 h after which all the cells are collected, the not infiltrating immune cells are washed off and the rest is either digested to single cells or fixed and embedded as whole tissue. For flow cytometry analysis the single cells are blocked, stained with antibody mix, fixed, and run on a flow cytometer. For imaging, the embedded organoids are labelled with different antibodies, cleared, and imaged.” left out
as §2

[4] = test system: EpCAM positive cells of PDOs; experiment: Tumour cell viability by flow cytometry (live cells within EpCAM positive cells) after coculture with PBMC; conditions: 1.4 μM niraparib or DMSO 7 days, 48 h coculture with PBMC
Procedure: as §1, with “The PDOs are co-cultured for 48 h after which all the cells are collected, the not infiltrating immune cells are washed off and the rest is either digested to single cells or fixed and embedded as whole tissue. For flow cytometry analysis the single cells are blocked, stained with antibody mix, fixed, and run on a flow cytometer. For imaging, the embedded organoids are labelled with different antibodies, cleared, and imaged.” left out
Cell viability is evaluated by flow cytometry analysis performed after 48 h of co-culture subsequent to 7 days of treatment with 1.4 μM Niraparib or DMSO (as control). […]

Structure (SMILES) | PDO response to niraparib compared with cisplatin [1] | infiltration of CD45 positive cells, cisplatin-treated resistant PDOs ([2]; PDOs classified as resistant to niraparib, cisplatin 4.7 μM 7 days, vs saline) | infiltration of CD45 positive cells, cisplatin-treated sensitive PDOs ([2]; PDOs classified as sensitive to niraparib, cisplatin 4.7 μM 7 days, vs saline) | exoDNA length, sensitive PDO HNX29 [3] | exoDNA length, cisplatin-treated PDOs more resistant to niraparib ([3]; PDOs more resistant to niraparib, cisplatin-treated) | PD-L1 expression in cisplatin-treated tumour cells (PD-L1; vs saline) | PD1 expression in infiltrating CD4 positive cells (PD1; infiltrating CD4 positive (T) cells) | PD1 expression in non-infiltrating CD4 positive cells (PD1; non-infiltrating CD4 positive cells) | IC50 ([1]; Homo sapiens, 168 h, read-out: IC50 threshold (inflection point) above which increased infiltration of CD45 positive cells is observed, PDOs from multiple tumour types, dose-response curve after 7 days of treatment) | infiltration of CD45 positive cells, niraparib-treated resistant PDOs ([2]; resistant PDOs (high niraparib IC50), niraparib 1.4 μM 7 days, vs DMSO) | infiltration of CD45 positive cells, niraparib-treated sensitive PDOs ([2]; sensitive PDOs (low niraparib IC50), niraparib 1.4 μM 7 days, vs DMSO) | correlation of exoDNA length with niraparib IC50 ([3]; 6 HNSCC and 3 NSCLC PDOs) | threshold ratio (niraparib/DMSO) of exosomal DNA length ([3]; ROC curve vs IC50 value, 10 PDOs, sensitivity 100%, specificity 67%) | exoDNA length, niraparib-treated, versus niraparib sensitiveness ([3]; compared to exoDNA from DMSO-treated counterpart) | exoDNA length, niraparib-treated more resistant PDOs ([3]; resistant PDOs, compared to DMSO-treated counterpart) | threshold ratio (niraparib/DMSO) in tumour cell viability between sensitive and resistant cancers [4] | change / ratio (niraparib/DMSO) in tumour cell viability ([4]; sensitive vs resistant PDOs) | PD-L1 expression in niraparib-treated tumour cells (PD-L1; vs DMSO)
N.N.[Cl][Pt][Cl] [cisplatin] | similar | higher infiltration of CD45 pos cells; also recorded: increased infiltration of CD45 positive cells | decreased infiltration with CD45 positive cells | higher | shorter | upregulation of PDL1 expression | – | – | – | – | – | – | – | – | – | – | – | –
NC(=O)c1cccc2cn(-c3ccc([C@@H]4CCCNC4)cc3)nc12 [niraparib] | similar | – | – | higher | – | – | PD1 expression increases with the increased in IC50 value; also recorded: upregulate PD1 expression; also recorded: high levels of PD1 expression | PD1 expression negatively correlates with niraparib IC50 value | 1 to 1.2 µM | increased in resistant samples; also recorded: increased infiltration of CD45 positive cells; also recorded: increased levels of CD45 positive cell infiltration | reduced in sensitive samples; also recorded: decreased infiltration with CD45 positive cells | exoDNA length correlates with the niraparib IC50 | 1.1 | increased with the increase of niraparib sensitiveness | shorter | 0.75 | higher ratio (naraparib/DMSO) in tumour cell viability; also recorded: only pronounced in cancers that are sensitive to the PARP inhibitor, niraparib | upregulation of PD-L1 expression; also recorded: PDL1 upregulation; also recorded: high levels of PD-L1, or PD-L1 upregulation
